# Experimental data: publication PMC9572811, “Synthesis of Novel Benzimidazole-Based Thiazole Derivatives as Multipotent Inhibitors of α-Amylase and α-Glucosidase: In Vitro Evaluation along with Molecular Docking Study” (Molecules, 2022)
# Read-outs that look alike come from different tables or passages of the source.
# What was measured:
# [1] = molecular target: T1, α-amylase (Sus scrofa, UniProt P00690); assay: α-amylase inhibition assay; assay type: biochemical, Porcine
# T1 sequence (P00690 16-511): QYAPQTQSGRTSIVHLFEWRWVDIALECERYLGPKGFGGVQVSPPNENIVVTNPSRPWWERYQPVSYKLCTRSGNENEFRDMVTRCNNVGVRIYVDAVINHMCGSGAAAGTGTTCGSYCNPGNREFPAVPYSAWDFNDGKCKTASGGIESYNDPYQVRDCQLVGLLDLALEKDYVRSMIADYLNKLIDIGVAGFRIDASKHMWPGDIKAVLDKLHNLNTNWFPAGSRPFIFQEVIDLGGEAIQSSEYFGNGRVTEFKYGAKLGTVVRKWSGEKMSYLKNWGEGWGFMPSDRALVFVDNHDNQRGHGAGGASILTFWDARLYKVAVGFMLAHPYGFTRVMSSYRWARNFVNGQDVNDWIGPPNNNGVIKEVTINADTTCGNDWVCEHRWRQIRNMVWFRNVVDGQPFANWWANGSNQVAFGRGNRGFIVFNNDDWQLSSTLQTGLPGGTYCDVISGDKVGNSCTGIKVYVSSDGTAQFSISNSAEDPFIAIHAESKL
# Experimental: 3.2. α-amylase inhibition assay
# The a-amylase inhibition was determined by an assay modified from Kwon, Apostolidis&
# Shetty. Five hundred microlitersof plant extract and all reagents were modified to 40 µL in this
# assay. A total of 40 µL of sample and 40 µL of 0.02 M sodiumphosphate buffer (pH 6.9 with
# 0.006 M sodium chlori de) containinga-amylase solution (Porcine pancreatic a-amylase) (0.5
# mg/ml)were incubated at 25 °C for 10 min. After pre-incubation, 40 lLofa 1% starch solution in
# 0.02M sodium phosphate buffer (pH 6.9with 0.006 M sodium chloride) was added to each tube
# at 5 s intervals.The react ion mixtures were then i ncubated at 25 _C for 10 min.The reaction was
# stopped with 100 µL of dinitrosalicylic acid colorreagent. The test tubes were then incubated in a
# boiling water bathfor 5 min and cooled to room temperature. The reaction mixturewas then
# diluted after adding 900 µL distilled water and the absorbancewas measured at 540 nm.
# 3.3. α-glucosidase inhibition assay
# The α-glucosidase inhibition activity was performed with slightmodifications as given by Rahim
# et al. Total volume of 100 μLreaction mixture contained, 70 μL 50mM phosphate buffer pH 6.8,
# 10μL (0.5mM in methanol) test compound, followed by the addition of 10μL (0.057 units, Sigma
# Inc.) enzyme solution in the buffer.
# and pre-read at 400 nm.The reaction was initiated by the addition of 10 μL of 0.5mM
# substrate(p-nitrophenyl glucopyranoside, Sigma Inc.).
# absorbance of p-nitrophenol was measured at 400 nm usingthe Synergy HT 96-well plate reader,
# BioTek, USA. […] All experiments were carried out in
# triplicates(mean ± SEM, n=3). Percent inhibition was calcul ated by the foll owing
# Inhibition (%) = (Abs ofControl−Abs of Test/Abs of Control) × 100
# [2] = in vitro, porcine pancreatic α-amylase, starch substrate, acarbose as standard
"IC50 [1, 2] [µM]",IC50 [1] [µM],melting point [°C],Structure (SMILES)
1.9 ± 0.1,–,–,O=[N+]([O-])c1ccc(C(CSc2nc3ccccc3[nH]2)=NNc2nc(-c3ccccc3F)cs2)cc1 [Compound 4]
–,2.2 ± 0.1,206 to 207,O=[N+]([O-])c1ccc(/C(CSc2nc3ccccc3[nH]2)=N\Nc2nc(-c3ccc(Cl)c(Cl)c3)cs2)cc1 [Compound 1]
1.3 ± 0.05,–,199 to 200,O=[N+]([O-])c1ccc(C(CSc2nc3ccccc3[nH]2)=NNc2nc(-c3ccc(F)cc3)cs2)cc1 [Compound 3]
